Where a SMILES comes first, the peptide text is derived from it. The star is where a group is joined. Cbz = O=C(OCc1ccccc1)*
What was measured:
[1] = test system: cyclin D1; experiment: Cyclin D1 protein levels by western blotting in transfected HEK293 cells with or without MG132; type: cell-based, human
Method: Ubc9 (a), SUMO1 (b), SUMO2 (c), SUMO3 (d) together with SENP1 constructs was co-transfected with cyclin D1 into HEK293 cells in the absence or presence of proteasome inhibitor MG132 (10 μM, 6 h of incubation). Cyclin D1 protein levels were detected through western blotting. (e) siRNA specific for Ubc9 was transiently transfected in human colon cancer cell HCT116 cells. Endogenous cyclin D1 protein levels were detected through western blotting. (f) In vivo SUMOylation and ubiquitination assay. HA-cyclin D1 was co-transfected with Ubc9 and SENP1 expression plasmids into HEK293 cells in the presence of MG132 (10 μM, 6 h of incubation). […]
(a) Cell lysates were extracted from different tissues of wt or Itch-KO mice. Endogenous cyclin D1 protein levels were detected using anti-cyclin D1 antibody by western blotting. […] Endogenous cyclin D1 protein levels were detected using anti-cyclin D1 antibody by western blotting. […] Cyclin D1 protein levels were detected using anti-HA antibody by western blotting. […] 24 h after transfection, the cell lysates were collected, the ubiquitylated cyclin D1 was detected as described in FIG. 1f. […] Cyclin D1 protein levels were detected using anti-HA antibody by western blotting. […]
Western blotting and immunoprecipitation (IP) were performed as previously described (54). The interaction between endogenous Cyclin D1 and Itch was determined in HEK293 cells. […]

[2] = target: T1, cyclin D1 (Homo sapiens, UniProt P24385); experiment: In vivo SUMOylation and ubiquitylation assay (co-immunoprecipitation, western blotting); type: cell-based
T1 construct: endogenous in cells; host or cells: HCT-116
T1 sequence (P24385 whole entry): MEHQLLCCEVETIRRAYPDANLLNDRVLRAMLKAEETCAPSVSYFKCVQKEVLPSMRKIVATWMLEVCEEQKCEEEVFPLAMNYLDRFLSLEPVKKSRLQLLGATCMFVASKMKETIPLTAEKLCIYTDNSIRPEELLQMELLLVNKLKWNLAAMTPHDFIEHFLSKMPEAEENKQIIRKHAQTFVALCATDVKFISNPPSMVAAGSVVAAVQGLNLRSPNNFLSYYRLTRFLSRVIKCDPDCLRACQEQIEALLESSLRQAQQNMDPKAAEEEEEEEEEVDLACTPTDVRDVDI
Method: (§1) (a, b&d) In vivo SUMOylation and ubiquitination assay. As for (a), HCT-116 cells were treated with As2O3 for 16 h (2.5 μM). Cell lysates were harvested at different time points (0, 1, 4 and 16 h). As for (b), WT or mutant cyclin D1 (K149R, T286A, DM) construct was stably transfected into HCT-116 cells. Then the cells were treated with As2O3 for 1 h. As for (d), HCT-116 cells were treated with As2O3 for 16 h (2.5 μM) in the absence or presence of MG132 (10 μM, 6 h of incubation). The SUMOylated and ubiquitylated cyclin D1 was detected as described in FIG. 1f. Cyclin D1 protein levels were detected using anti-cyclin D1 antibody (a&d) or anti-HA-antibody (b) by western blotting. (c) WT or mutant cyclin D1 (K149R, T286A, DM) construct was stably transfected into HCT-116 cells. Then the cells were treated with As2O3 for 16 h. Cyclin D1 protein levels were detected using anti-HA-antibody by western blotting. (e) TUNEL staining. WT or mutant cyclin D1 (K149R, T286A) construct was stably transfected into HCT-116 cells. Then the cells were treated with As2O3 (2.5 μM) for 16 h. The apoptotic cells were detected using Promega's DEADEND Colorimetric TUNEL System. Yellow arrows are pointing at apoptotic cells. (f) Flow cytometry. WT or mutant cyclin D1 (K149R) construct was stably transfected into HCT-116 cells. Then the cells were treated with As2O3 for 16 h (2.5 μM). Cell cycle progression was detected by flow cytometry. (As, arsenic trioxide)
(§2) SUMOylated cyclin D1 or ubiquitylated cyclin D1 was detected by co-immunoprecipitation using anti-SUMO-2/3 antibody or anti-ubiquitin antibody conjugated beads (Enzo Life Science), followed by immunoblotting with anti-cyclin D1 antibody or anti-HA antibody for cyclin D1 detection.

[3] = test system: solid and liquid tumors; settings: references 48-51; cited from earlier work
[4] = test system: HCT-116 cells; experiment: Cell cycle analysis by flow cytometry; type: cell-based, human; settings: HCT-116 cells transfected with K149R mutant cyclin D1 compared with WT, As2O3 2.5 μM, 16 h
Method: as §1, with “WT or mutant cyclin D1 (K149R, T286A) construct was stably transfected into HCT-116 cells. Then the cells were treated with As2O3 (2.5 μM) for 16 h.” left out, “Yellow arrows are pointing at apoptotic cells. (f) Flow cytometry. WT or mutant cyclin D1 (K149R) construct was stably transfected into HCT-116 cells. Then the cells were treated with As2O3 for 16 h (2.5 μM).” left out, “(As, arsenic trioxide)” left out
FACS analysis was performed as described in the research by Santra et al (55). […] FACS samples were analyzed with a FACSCANTO Flow Cytometry System (BD Biosciences). And the data were analyzed using FlowJo 7.6 software according to the manufacturer's instruction.

[5] = test system: HCT-116 cells; experiment: TUNEL staining of apoptotic cells; type: cell-based, human; settings: 16 h
Method: as §1
Cell apoptosis was detected using fluorescent in situ terminal deoxynucleotidyl transferase-mediated uridine 5′-triphosphate-biotin nick end labeling (TUNEL staining). Sections were first permeabilized in 0.1% Triton X-100 in phosphate-buffered saline (PBS) for 8 mins. TUNEL reaction mixture was obtained by adding terminal deoxynucleotidyl transferase to nucleotide mixture, as instructed by the manufacturer's manual (DEADEND Fluorometric TUNEL System, Promega). Sections were counterstained nuclei with 4′-6-Diamidino-2-phenylindole (DAPI).

[6] = target: T2, cyclin D1 (Homo sapiens, UniProt P24385, K149R); experiment: Cyclin D1 protein levels by western blotting in HCT-116 cells; type: cell-based; settings: HCT-116 cells stably expressing K149R mutant cyclin D1, treated 16 h
T2 construct: endogenous in cells; host or cells: HCT-116
T2 sequence (P24385 whole entry K149R): as the sequence (P24385 whole entry) above, with K149R counted along it
Method: as §1
(§3) 48 h later, the cyclin D1 protein levels were detected through western blotting.
(§4) Western blotting and immunoprecipitation (IP) were performed as previously described (54). The interaction between endogenous Cyclin D1 and Itch was determined in HEK293 cells. Proteasome inhibitor MG132 (10 μM) (Sigma, St. Louis, Mo.) was added to the cell culture 6 hours before cells were harvested for immunoprecipitation assay. […]

[7] = target: T3, cyclin D1 (Homo sapiens, UniProt P24385, K149R/T286A); experiment: as above; type: cell-based; settings: HCT-116 cells stably expressing K149R/T286A mutant cyclin D1, treated 16 h
T3 construct: endogenous in cells; host or cells: HCT-116
T3 sequence (P24385 whole entry K149R/T286A): as the sequence (P24385 whole entry) above, with K149R, T286A counted along it
Method: as §1, §3, §4

[8] = test system: cyclin D1; experiment: as above; type: cell-based, human; settings: HCT-116 cells, Itch siRNA, As2O3 2.5 μM, 48 h
Method: as §1, §3, §4

[9] = test system: tumor; settings: reference 52; cited from earlier work
[10] = target: T4, cyclin D1 (Homo sapiens, UniProt P24385, T286A); experiment: In vivo SUMOylation and ubiquitylation assay (co-immunoprecipitation, western blotting); type: cell-based; settings: HCT-116 cells stably expressing T286A mutant cyclin D1, treated 1 and 16 hours
T4 construct: endogenous in cells; host or cells: HCT-116
T4 sequence (P24385 whole entry T286A): as the sequence (P24385 whole entry) above, with T286A counted along it
Method: as §1, §2

Row | Compound | effect on Itch-induced cyclin D1 degradation ([1]; HEK293 cells co-transfected with Itch and cyclin D1, MG132 10 μM 6 h) | effect on degradation of cyclin D1 caused by Ubc9 ([1]; HEK293 cells co-transfected with Ubc9 and cyclin D1, MG132 10 μM 6 h) | effect on As2O3-mediated cyclin D1 SUMOylation and polyubiquitination ([2]; HCT-116 cells, As2O3 2.5 μM 16 h, MG132 10 μM 6 h) | cell apoptosis in solid and liquid tumors [3] | G1 arrest [4] | cell apoptosis (TUNEL) ([5]; HCT-116 cells stably transfected with K149R mutant cyclin D1, As2O3 2.5 μM) | cell apoptosis (TUNEL) ([5]; HCT-116 cells stably transfected with K149R mutant cyclin D1, As2O3 2.5 μM, listed as arsenic trioxide) | cell apoptosis (TUNEL) ([5]; HCT-116 cells stably transfected with T286A cyclin D1, As2O3 2.5 μM) | cell apoptosis (TUNEL) ([5]; HCT-116 cells stably transfected with WT cyclin D1, As2O3 2.5 μM) | degradation of cyclin D1 [6] | degradation of cyclin D1 [7] | degradation of cyclin D1 under silencing of Itch expression [8] | tumor size in nude mice [9] | SUMOylation, polyubiquitination and degradation of cyclin D1 [10] | SUMOylation, polyubiquitination and degradation of cyclin D1 ([2]; HCT-116 cells stably expressing WT cyclin D1, treated 1 and 16 hours) | SUMOylated- and polyubiquitinated-cyclin D1 ([2]; HCT-116 cells, As2O3 2.5 μM, 1 h after treatment) | modified (SUMOylated/polyubiquitinated) cyclin D1 ([2]; HCT-116 cells, As2O3 2.5 μM, after 16 h treatment)
1 | CC(C)C[C@@H](C=O)NC(=O)[C@H](CC(C)C)NC(=O)[C@H](CC(C)C)NC(=O)OCc1ccccc1 [MG132] (Cbz-Leu-Leu-Leu-aldehyde) | reversed the effect of Itch on cyclin D1 degradation | reversed the degradation of cyclin D1 | reversed | – | – | – | – | – | – | – | – | – | – | – | – | – | –
2 | arsenic trioxide [As2O3] | – | – | – | induces cell apoptosis | failed to induce efficient G1 arrest | much lower | significantly decreased | induced accelerated cell apoptosis | induced accelerated cell apoptosis | no effect | no effect | did not abrogated degradation of cyclin D1 | tumor shrink | induced SUMOylation, polyubiquitination and degradation of cyclin D1 | induced SUMOylation, polyubiquitination and degradation of cyclin D1 | accumulated | disappeared

From patent publication US20160015743A1, “METHODS FOR TREATING CANCER” (priority 2013, published 2016)
